Reference: ChEMBL document CHEMBL1764994, “QSAR-based permeability model for drug-like compounds” (Bioorg Med Chem, 2011)

Columns and labels:
[1] = test system: Caco-2; conditions: human, Caco-2, 2 h;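 on permeability: apparent permeability through Caco-2 cell membranes, with the permeated amount quantified by LC-MS/MS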
[2] = test system: Caco-2; conditions: human;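 on permeability: apparent permeability through Caco-2 cell membranes, with the permeated amount quantified by LC-MS/MS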
[3] = test system: Caco-2; conditions: human, Caco-2, 2 h; remark: listed apart in the source;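 on permeability: apparent permeability through Caco-2 cell membranes, with the permeated amount quantified by LC-MS/MS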

| SMILES | logPapp [1] | permeability [1] | further results |
| --- | --- | --- | --- |
| CC(C(=O)O)c1ccc2c(c1)Cc1cccnc1O2 (centres undefined) [PRANOPROFEN] | -4.39 | – | – |
| Cc1ccc(/C(=C\CN2CCCC2)c2cccc(/C=C/C(=O)O)n2)cc1 [ACRIVASTINE] | -5.72 | – | – |
| CC#Cc1cn([C@@H]2O[C@H](CO)[C@@H](O)[C@@H]2O)c(=O)[nH]c1=O [NETIVUDINE] | -6.17 | – | – |
| CC[C@H](C)C(=O)O[C@H]1C[C@H](O)C=C2C=C[C@H](C)[C@H](CC[C@@H](O)C[C@@H](O)CC(=O)O)[C@H]21 [PRAVASTATIN] | – | – | logPapp [2]: -5.64; logPapp [3]: -6.56 |
| Clc1cccc(Cl)c1N=C1NCCN1 [CLONIDINE] | -4.66 | – | – |
| Cc1cc(=O)n(-c2ccccc2)n1C [ANTIPYRINE] | – | permeable | – |
| CC1(C)S[C@@H]2[C@H](NC(=O)Cc3ccccc3)C(=O)N2[C@H]1C(=O)O [PENICILLIN G] | -6.11 | – | – |
| C[C@](N)(Cc1ccc(O)c(O)c1)C(=O)O [METHYLDOPA] | – | permeable | – |
| CC(C)[C@H](N)C(=O)OCCOCn1cnc2c(=O)[nH]c(N)nc21 [VALACYCLOVIR] | – | – | logPapp [2]: -6.3; logPapp [3]: -6.52 |
| CC(C(=O)O)c1cccc(C(=O)c2ccccc2)c1 (centres undefined) [KETOPROFEN] | – | permeable | – |
| NC(=O)N1c2ccccc2C=Cc2ccccc21 [CARBAMAZEPINE] | -5.3 | permeable | – |
| N[C@@H]1[C@H]2CN(c3nc4c(cc3F)c(=O)c(C(=O)O)cn4-c3ccc(F)cc3F)C[C@@H]12 [TROVAFLOXACIN] | -4.52 | – | – |
| CC(=O)[C@H]1CC[C@H]2[C@@H]3CCC4=CC(=O)CC[C@]4(C)[C@H]3CC[C@]12C [PROGESTERONE] | -4.55 | – | – |
| OC[C@@H](O)[C@@H](O)[C@H](O)[C@H](O)CO [MANNITOL] | – | permeable | – |
| CC(C)(C)NC[C@H](O)COc1nsnc1N1CCOCC1 [TIMOLOL] | -4.43 | – | – |
| CC(C(=O)O)c1ccc(C(=O)c2ccccc2)s1 (centres undefined) [TIAPROFENIC ACID] | -4.41 | – | – |
| COCCc1ccc(OCC(O)CNC(C)C)cc1 (centres undefined) [METOPROLOL] | – | permeable | – |

| SMILES | logPapp [1] | permeability [1] | further results |
| --- | --- | --- | --- |
| CCOC(=O)[C@H](CCc1ccccc1)N[C@@H](C)C(=O)N1CCC[C@H]1C(=O)O | – | – | logPapp [2]: -5.7; logPapp [3]: -6.1 |
| CN1CCC[C@H]1c1cccnc1 [NICOTINE] | -4.58 | – | – |
| CN/C(=N/CCSCc1nc[nH]c1C)NC#N [CIMETIDINE] | -5.88 | – | – |
| CC1(C)S[C@@H]2[C@H](NC(=O)[C@H](N)c3ccc(O)cc3)C(=O)N2[C@H]1C(=O)O [AMOXICILLIN] | – | permeable | – |
| CNC(=C[N+](=O)[O-])NCCSCc1ccc(CN(C)C)o1 [RANITIDINE] | -6.2 | permeable | – |
| C=CCOc1ccccc1OCC(O)CNC(C)C (centres undefined) [OXPRENOLOL] | -4.21 | – | – |
| C[C@H](CCC(=O)NCCS(=O)(=O)O)[C@H]1CC[C@H]2[C@@H]3[C@H](O)C[C@@H]4C[C@H](O)CC[C@]4(C)[C@H]3C[C@H](O)[C@]12C [TAUROCHOLIC ACID] | -4.46 | – | – |
| O=C(O)c1cc(/N=N/c2ccc(S(=O)(=O)Nc3ccccn3)cc2)ccc1O [SULFASALAZINE] | -6.61 | – | – |
| CC(C)n1c(/C=C/C(O)CC(O)CC(=O)O)c(-c2ccc(F)cc2)c2ccccc21 (centres undefined) [FLUVASTATIN] | – | permeable | – |
| CCCc1nc2c(C)cc(-c3nc4ccccc4n3C)cc2n1Cc1ccc(-c2ccccc2C(=O)O)cc1 | -4.82 | – | – |
| CC(C)NCC(O)COc1cccc2[nH]ccc12 (centres undefined) [PINDOLOL] | -4.41 | – | – |
| CNC[C@H](O)c1ccc(O)c(O)c1 [EPINEPHRINE] | -6.02 | – | – |
| CNC(=NCCSCc1csc(N=C(N)N)n1)NC#N [TIOTIDINE] | -5.66 | – | – |
| NCCc1ccc(O)c(O)c1 [DOPAMINE] | -5.03 | – | – |
| Cn1c(=O)c2[nH]cnc2n(C)c1=O.O [THEOPHYLLINE] | -4.4 | permeable | – |
| c1ccc(C2(N3CCCCC3)CCCCC2)cc1 [PHENCYCLIDINE] | -4.61 | – | – |
